Patent US9426950B2, “Production of Deschampsia antartica in bioreactors” (priority 2012, dated 2016)

How the values were obtained:
[1] = system: D. antarctica explants; assay: Effect of growth regulators on D. antarctica's morphogenic response and biomass production in bioreactors (SIT); assay type: in vivo, Deschampsia antarctica; conditions: for reproduction rate / organogenic response: SIT method (FIG. 7); for survival of explants compared with the control treatment: growth regulators in the culture medium, bioreactors (FIG. 6); for type of morphogenic response (roots / shoots): AIB with BAP or alone, BAP alone or ratio favoring BAP; for biomass production: treatments supplemented with growth regulators (FIG. 9)
Text: In order to determine the appropriate composition of growth regulators for explant propagation and to establish the differences in the physical state of the liquid culture medium compared to the semisolid medium, a comparative study was done on the effect of growth regulators on the culture medium using the SIT method and the conventional propagation method, SSS. To determine the growth regulators' effect on D. antarctica's morphogenic response and biomass formation, a study was done on the effect of combining the cytokinin 6-benzylaminopurine (6-BAP) (0.0; 0.5; 1.0; and 3.0 mgL-1) with the auxin indolbutyric acid (AIB) (0.0; 0.1; 0.25; and 0.5 mgL^−1). Likewise, a study was done of the effect of a set concentration of gibberellic acid (3 mgL-1) combined with the auxins and cytokinins and their isolated effect in the culture medium. Gibberellic acid is associated with the elongation of tissues, and it could play a significant role in biomass growth.
For each bioreactor, 50 to 60 explants with the phenotype characteristics indicated in the osmotic agent test were used in 1000 ml of nutritive medium for each condition, keeping an initial treatment weight of 2 grams. For the SSS method, 25 explants were used in Petri dishes with 40 ml of a medium gelled with agar (Gelzan′) at a rate of 2.5 gL^−1.
A 12-hour immersion frequency was used, with immersion times of 3 minutes and aeration times of 5 minutes.
For this test, the total weight of inoculated biomass was adjusted at 2.0 g per bioreactor. Therefore, the number of plants per bioreactor varied, and the distribution of weight and size during inoculation was random. The experimental unit was the explant.
The effect of the growth regulators was evaluated with the following variables: Increase in fresh weight (FW) per treatment, increase in fresh weight/explant, reproduction rate, survival of explants, and degree of oxidation; all of the same criteria used in the test with osmotic agents.
A sample of 25 explants was taken for each treatment in order to measure the different variables.

[2] = system: D. antarctica explants; assay: Effect of osmoregulating agents on D. antarctica explants cultivated in temporary immersion bioreactors; assay type: in vivo; conditions: for degree of oxidation (scale of Table 1): in vivo; for fresh weight: glucose 5 gL−1 and 20 gL−1, sodium chloride 5 gL−1 (FIG. 5)
Text: The Deschampsia antarctica plants were reproduced in bioreactors with a liquid culture medium. The nutritive growth conditions were formulated using the inorganic salts proposed by (Murashige, 1973) (MS), supplemented with saccharose 30 gL^−1. In order to determine the conditions needed to obtain high growth and morphophysiological development rates for the tissues, an evaluation was done of the immersion frequency conditions and the addition of osmotic and growth regulating agents.
The regulation of the culture medium's hydric potential determines the quality of the morphogenic response of the plants being cultivated in vitro, especially in systems using liquid culture media (Hua et at, 2010; Stanly et al., 2010). The experiment consisted of evaluating the effect of osmoregulating agents at different concentrations [mannitol (10 and 20 gL-1), glucose (5 and 20 gL-1), polyethylene glycol (5 and 10 gL^−1), and NaCl (5, 10, and 20 gL-1)] on the morphogenic response and biomass production of D. antarctica.
In each bioreactor, 100 plants from the semisolid culture (SSS) that were more than 2 cm tall, with well-developed, expanded leaves, were inoculated in triplicate. The dead leaves and oxidized tissue that grows around the crown of the plants were removed. The bioreactors' initial volume was adjusted to 1000 ml per cultivation jar. A 12-hour immersion frequency was used, with an immersion time of 300 seconds and an aeration time of 60 minutes.
The average initial weight of the explants in each treatment was taken. The repetitions were distributed randomly in the culture trays.
The effect of the osmoregulators was evaluated with the following variables: Increase in fresh weight (FW) per treatment, increase in fresh weight per explant, multiplication rate, explant survival rate, and degree of oxidation.
To calculate survival, live explants were assigned a value of 1, while dead explants were assigned a value of 0. The data was entered into a double-entry matrix where the osmoregulator-type factor is compared to the survival variable. A scale of the explants' damage from phenolization was developed to calculate the degree of oxidation, and is described in Table 1.
The degree of oxidation was calculated using the Townsend and Neuberger formula (1943), which considers the frequency and intensity with which the explant damage occurs, using the equation:
[formula] Where: • P=weighted degree of severity of oxidation • n=number of explants for each category in the scale • v=numerical value of each category • CM=largest category • N=total number of explants in the sample
The percentage of explants oxidized in treatment was also calculated, using the equation:
[formula] Where: • % O=percentage of explants oxidized in each treatment • EO=number of oxidized explants in the sample • ET=total number of explants evaluated in the sample
To determine the average increase in fresh weight (IFW) in each treatment, the initial weight of the inoculated explants in each bioreactor was taken (including an experimental unit) and then averaged. The fresh weight data was collected at the end of each repetition in each treatment. The increase in fresh weight was calculated using the equation: IFW=FWf−FWo Equation 3 Where: • IFW=average fresh weight increase in each treatment • FWf=average final fresh weight of the biomass in each treatment • FWo=average initial fresh weight of the biomass in each treatment
To determine the average fresh weight increase per explant (IFWe) for each treatment, each explant was measured at the beginning and end of the test for each repetition, and the averages were calculated. The fresh weight increase was calculated using the equation: IFWe=FWef−FWeo Equation 4 Where: • IFWe=average fresh weight increase per explant • FWef=average final fresh weight of the biomass in each bioreactor • FWeo=average initial fresh weight of the biomass in each bioreactor. […]

[3] = system: D. antarctica explants; assay: as above; assay type: in vivo; conditions: glucose 5 gL−1; mannitol 5 gL−1; PEG 5 gL−1 and 20 gL−1 (FIG. 4)

SMILES | reproduction rate / organogenic response [1] | survival of explants compared with the control treatment [1] | degree of oxidation (scale of Table 1) [2] | reproduction rate [3] | fresh weight [2] | type of morphogenic response (roots / shoots) [1] | biomass production [1] | further results
C=C1C[C@]23C[C@@]1(O)CC[C@H]2[C@@]12C=C[C@H](O)[C@@](C)(C(=O)O1)[C@H]2[C@@H]3C(=O)O [GA3, gibberellic acid] | significantly reduced the reproduction rate | significantly lower than the control treatment |  |  |  |  |  | 
OC[C@@H](O)[C@@H](O)[C@H](O)[C@H](O)CO [mannitol] |  |  | degree 1 | statistically different from the control treatment |  |  |  | 
O=C[C@H](O)[C@@H](O)[C@H](O)[C@H](O)CO [glucose] |  |  | degree 1 | greatest | increased significantly |  |  | survival rate ([2]; glucose at 5 gL−1, temporary immersion bioreactors): 100%; reduction of the explants' survival rate ([2]; glucose concentration increased to 20 gL-1): up to 50%; explants' growth ([2]; increased concentrations of glucose): did not significantly affect the explants' growth
c1ccc(CNc2ncnc3nc[nH]c23)cc1 [BAP, 6-benzylaminopurine] | sufficient to induce efficient organogenic responses | Neither the addition of AIB or BAP, nor the combination of these growth regulators, significantly increased the survival |  |  |  | induced only shoot formation or the development of aerial biomass | increased significantly | 
[Cl-].[Na+] [sodium chloride] |  |  |  |  | increased significantly |  |  | decrease of fresh weight ([2]; increased concentration of sodium chloride (FIG. 5)): 60%; survival of the explants ([2]; three concentrations of sodium chloride studied (5, 10, 20 gL-1)): significantly affected the survival of the explants
O=C(O)CCCc1c[nH]c2ccccc12 [AIB, indolbutyric acid] | did not have a significant effect on the reproduction rate | Neither the addition of AIB or BAP, nor the combination of these growth regulators, significantly increased the survival |  |  |  | induced root formation | increased significantly | 
